We go through one molecule from PMC6032158, “Structure–Activity Relationship of Piplartine and Synthetic Analogues against Schistosoma mansoni and Cytotoxicity to Mammalian Cells” (International Journal of Molecular Sciences, 2018).

For this experiment, the system named is 49-day-old S. mansoni adult worms. Description: In vitro experiments with adult worms of S. mansoni (mortality, motor activity). Format: cell-based, Schistosoma mansoni. As to conditions: 2 µM, male worms. The protocol:
The Belo Horizonte (BH) strain of S. mansoni was maintained in Biomphalaria glabrata snails and Mesocricetus auratus hamsters at the Adolfo Lutz Institute (São Paulo, Brazil) according to standard procedures. Detailed methods for the infection of molluscs and hamsters, as well as for the recovery of parasites, were as described previously. Briefly, the intermediate host snails were exposed to light for approximately 3 h and cercariae of S. mansoni were subsequently harvested. […] All animals were handled in strict accordance with good animal practice as defined by the Animal Use Ethics Committee. The preparations and culture of schistosomes was performed as previously described. Briefly, hamsters were killed 49 days after infection for the recovery of adult schistosomes. Next, fresh adult worm pairs (male and female) were washed and placed in a 24-well culture plate (TPP, St. […] Adult schistosomes were maintained continuously in medium (with or without drugs) for 96 h as described below. In vitro assays in S. mansoni adults were performed with mated males and females. The worm pairs obtained from the infusion hamsters were washed twice with RPMI 1640 medium containing 200 U/mL penicillin, 200 μg/mL streptomycin and 2 μg/mL amphotericin B (Vitrocell, Campinas, Brazil). The mated parasites were then transferred into 24-well cell culture plates (TPP, St. […] Cultures of adult worms were monitored by microscopy or magnifying glass. The effect of the drug was assessed with emphasis on changes in worm motor activity and death of worms as previously described.

Regarding `O=C(C1CCCCC1)N1CC(=O)N2CCc3ccccc3C2C1` (stereo not drawn) [Praziquantel, praziquantel, reference compound], the “Dead Worms (%) M” value (24 h) is reported as 100%, the “Dead Worms (%) M” value (48 h) was 100%, the “Dead Worms (%) M” value (72 h) came to 100% and the “Dead Worms (%) M” value (96 h) was 100%. The “Motor Activity Reduction (%) Significant M” value worked out at 100% (24 h), 100% (48 h), 100% (72 h) and 100% (96 h). Moreover, the “Motor Activity Reduction (%) Slight M” value came to 0% (24 h), 0% (48 h), 0% (72 h) and 0% (96 h).
